The text below walks through data of patent US11447477B2, “Indoleamine-2,3-dioxygenase inhibitor, the preparative method and the use thereof” (HINOVA PHARMACEUTICALS INC., priority 2017, dated 2022).

A short description of one series: Pharmacokinetics in mice. It counts as in vivo, ICR mice. To be noted: for Cmax: read-out: Blood concentration Cmax; for AUC: read-out: Curve area AUC; for Tmax: read-out: Peak time tmax; for MRT inf: read-out: Retention time MRTinf. From the text:
1) Experimental Materials and Apparatus: • LC-20AD HPLC system (SHIMADZU, Japan) • API4000 Triple quadrupole mass spectrometer (Applied Biosystem, USA) • PhenixWinnolin Pharmacokinetic software (Version 6.3, Certara, USA) • High speed freezing centrifuge (Thermo Fisher Scientific) • Analytical balance (SECURA225D-1CN) • Experimental animals: ICR mice (Chengdu Dashuo Experimental Animal Co., Ltd) • DMA (Sigma) • CMC-Na (Chengdu Kelong Chemical Co., Ltd) • Heparin (Chengdu Kelong Chemical Co., Ltd)
2) Experimental Methods and Results
A solution at concentration of 0.5 mg/mL was prepared. 0.2 ml of the final solution prepared was taken out and stored at −20° C. for concentration determination. Nine healthy adult ICR mice (20-30 g) were fasted overnight (free drinking water) and then administrated at a dosage of 0.2 mL/10 g by gavage. Prior to administration and 0.5, 1, 2, 4, 6, 8, 12, 24 h after administration, 0.1 mL blood was collected from the posterior orbital venous plexus and centrifuged at 4° C. for 5 min to separate the plasma, which was preserved at −20° C. for testing. Then the concentrations of tested compounds in the plasma were determined by LC/MS/MS.

In series [1] the target is IDO protease in HeLa cells (Homo sapiens (Human), UniProt P14902). The series is described as follows: Inhibition of IDO protease in HeLa cells (IFNγ-induced, Trp/Kyn by RapidFire/MS). In kind it is cell-based. From the text:
1) Experimental Materials and Apparatus • HeLa cells (ATCC, Cat. No. CCL-2) • γ interferon IFNγ (R&D, Cat. No. 285-IF-100) • DMEM High Glucose media (Invitrogen, Cat. No. 11965-084) • Fetal bovine serum FBS (Invitrogen, Cat. No. 10100-147) • Trypsin-EDTA (0.050%)(Invitrogen, Cat. No. 25300-054) • Phosphate buffer solution PBS, pH 7.4 (Invitrogen, Cat. No. 10010023) • Penicillin-Streptomycin (P/S) (Invitrogen, Cat. No. 15070063) • L-tryptophan (Trp) (Sigma, Cat. No. T8941) • L-kynurenine (Kyn) (Sigma, Cat. No. K8625) • N′-diformylkynurenine (NFK) (J&K, Cat. No. F700490) • 3-Nitro-L-tyrosine (J&K, Cat. No. N0905) • Acetonitrile (Sigma, Cat. No. 34851) • Dimethylsulfoxide DMSO (Sigma, Cat. No. D8418) • Inhibitor INCB024360 (Selleckchem, Cat. No. S7910) • Inhibitor INCB024360-analog (MedKoo, Cat. No. 205493) • Inhibitor NLG919 (Selleckchem, Cat. No. S7111) • 96 well transparent flat bottom polystyrene cell culture plate (Corning, Cat #3599) • 96 well V-bottom polypropylene plate (PE, Cat #6008290) • 96 well U-shaped bottom polypropylene plate (PE, Cat. No. 6008390) • Multidrop™ distribution box with small metal tip (Thermo, Cat. No. 24073295) • Multidrop™ distribution box of standard tube with metal tip (Thermo, Cat. No. 24072670) • Automatic filling platform (Agilent) • Multidrop™ Combi automatic liquid separator (Thermo) • Centrifugal machine (Eppendorf) • Cell incubator (Thermo) • Cell counter (Thermo) • RapidFire Mass system (Agilent)
2) Experimental Method for Compound Assay
The compound (compounds 4, 8, 9, 78, 91 of the present invention) was dissolved in DMSO to prepare a solution with a concentration of 3 mM, and then 15 μL of the compound solution is added to a 96 well plate, and serially diluted by 3 times dilution to obtain 10 points. 2 μL compound solution or DMSO (for HPE/ZPE) was transferred to a new 96 well plate. HeLa cell suspension was seeded into the cell culture plate with a density of 1×10^4 cells/well. For HPE control well, the cell culture medium for detection was DMEM, including 10% FBS, 1% P/S, and 122 μM Trp; for ZPE control well and the compound wells, the cell culture medium was DMEM, including 10% FBS, 1% P/S, […], and 25 ng/ml IFNγ. 192 μL detection medium prepared as above was added to a 96 well plate. 78 μL DMEM was added to the compound plate and thoroughly mixed, and then 8 μL compound solution diluted with DMEM was transferred to the 96 well plate containing the detection medium. The cell culture plate was taken out, and the cell culture medium was discarded, then 100 μL compound solution mentioned above was transferred to the cell culture plate. The cell culture plate was moved into the cell incubator and kept for 48 hours. When detected, the cell culture plate was taken out, and 50 μL supernatant was transferred to a new 96 well plate, to which was added 200 μL acetonitrile, and the plate was mixed well. The plate was centrifugated at 4° C. for 20 minutes (rotatory speed being 4000 rpm), and 40 μL supernatant was transferred to another 96 well plate, to which was further added 360 μL deionized water containing […] internal reference (3-nitro-L-tyrosine). The plate was fully mixed, and then the sample was detected by RapidFire/MS system. The standards of L-tryptophan (Trp) and L-kynurenine (Kyn) were dissolved in water to obtain a concentration of 10 mM, and the standard curve was performed by three times dilution. The inhibitory ratio was calculated by obtained data, and the IC50 curve was completed by processing the resultant data with Graphpad Prism5 software.

For the next series, the target named is human IDO1 protease (Homo sapiens (Human), UniProt P14902). The series is described as follows: Inhibitory activity against human IDO1 protease (absorbance test method). In kind it is biochemical. To be noted: IDO1 (His-tag) enzyme, absorbance at 320 nm. How it is done: 1) Experimental Materials and Apparatus: • IDO1 (His-tag) enzyme (BPS Bioscience) • L-tryptophan (Sigma) • Methylene blue (Sigma) • Catalase originated from the liver of cattle (Sigma) • L-ascorbic acid (Sigma) • Glycerol (Sigma) • Potassium dihydrogen phosphate solution (Sigma) • Tween 20 (Sigma) • Automatic sampling platform Liquid handler (Bravo & Echo) • Microplate Reader SpectraMax M5e (Molecular Devices)
2) Test Method of Compounds: The Compounds are Determined by Absorbance Test Method:
The tested compounds and the reference compounds are dissolved in DMSO to prepare a high concentration of storage solution. The stock solution of reference compound was diluted with DMSO to prepare a 100× solution. In the first column of the working plate, 8 μL above tested compounds and 8 μL 100× reference compound were respectively added as the highest concentration, and then the highest concentrations were subjected to three times dilution to obtain 11 concentrations and prepare 100× solution. 0.5 μL solution was transferred from the above plate to the detection plate. […]. For HPE and ZPE control wells, 0.5 μL 100% DMSO was added.
25 μL 2×IDO1 (His-tag) enzyme solution (containing L-ascorbic acid, methylene blue, and catalase) was added to each well. 25 μL reaction solution without IDO1 (His-tag) enzyme was added into HPE control well. The test plate was centrifugated at 1000 rpm for 1 minute to mix well. Then, the test plate was incubated at room temperature for 30 minutes. 25 μL above 2× substrate (L-tryptophan) solution was added to each well. The test plate was centrifugated at 1000 rpm for 1 minute to mix well. The detection plate was placed on ELISA (SpectraMax M5e), the temperature was set at 25° C., and the absorbance (OD value) was measured at 320 nm every 10 minutes till 60 minutes.
Calculating the increase ratio of absorbance: the slope of the absorbance increase curve from 10 min to 60 min is derived from SpectralMax M5e. The inhibition coefficient of compound was calculated: the inhibition ratio of compound=(the absorbance increase ratio of ZPE control well−the absorbance increase ratio of compound well)/(the absorbance increase ratio of ZPE control well−the absorbance increase ratio of HPE control well)×100. Results was analyzed by Prism 5.0.

Setting [2] is: ICR, mouse, 10 mg/kg, PO, 10 mpk, plasma.

Chain of IDO protease in HeLa cells (P14902 whole entry): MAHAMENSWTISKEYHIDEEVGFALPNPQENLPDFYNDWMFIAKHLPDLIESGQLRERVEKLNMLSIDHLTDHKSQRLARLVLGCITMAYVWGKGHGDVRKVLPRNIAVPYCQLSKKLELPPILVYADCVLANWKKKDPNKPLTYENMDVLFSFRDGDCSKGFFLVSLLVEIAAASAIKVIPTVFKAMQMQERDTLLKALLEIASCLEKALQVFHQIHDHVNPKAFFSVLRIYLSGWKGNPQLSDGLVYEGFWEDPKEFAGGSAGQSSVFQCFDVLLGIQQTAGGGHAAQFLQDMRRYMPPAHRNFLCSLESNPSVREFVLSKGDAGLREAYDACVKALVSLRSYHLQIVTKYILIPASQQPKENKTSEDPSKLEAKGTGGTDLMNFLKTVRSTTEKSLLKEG
Chain of human IDO1 protease (P14902 whole entry): as above

On to `NS(=O)(=O)N1CC(CNc2nonc2/C(=N/O)Nc2ccc(F)c(Br)c2)C1` [Compound 4, N-(3-Bromo-4-fluorophenyl)-N′-hydroxyl-4-(((1-sulfamoylazetidin-3-yl)methyl)amino)-1,2,5-oxadiazole-3-formamidine], for which the “half-life time compared with the reference compound INCB-24360 (in words)” value in “Pharmacokinetics in mice” is “longer half-life time”. Also, in the series “Pharmacokinetics in mice” (setting [2]), the Cmax turned out to be 1080 ng/mL, the AUC stood at 1760 ng·h/mL, the time to peak (Tmax) came to 0.5 h and the MRT inf amounted to 3.28 h. In addition, the half-life in “Pharmacokinetics in mice” (ICR, mouse, 10 mg/kg, PO, 10 mpk, plasma, read-out: Half time t1/2 (converted)) was 5.06 h. For the same molecule, the “inhibitory activities on IDO protease in HeLa cells (in words)” value in series [1] was “excellent”. The molecule also showed an IC50 in series [1] (HeLa cells, 25 ng/ml IFNγ, 48 hours) of 5 nM. At human IDO1 protease, this molecule returned an IC50 of 55 nM.
For `NS(=O)(=O)NCCNc1nonc1C(=NO)Nc1ccc(F)c(Br)c1` [INCB24360, reference compound], in the series “Pharmacokinetics in mice” (setting [2]), the Cmax is 992 ng/mL, the AUC is 1810 ng·h/mL, the time of peak concentration (Tmax) came to 0.5 h and the MRT inf is 2.03 h.

The AUC is concentration integrated over time. What is called Tmax is the time at which the peak concentration occurs. For orientation: IC50 means the concentration needed to halve the response being measured. Higher therefore signals a need for much substance.
